Source: patent publication US7423051B2, “2,6-diaminopyridine derivatives” (Hoffmann-La Roche Inc., priority 2004, dated 2008)
Where two headings read alike, the source gives them in different places.

How the values were obtained:
[1] = target: T1, human cyclin D1-CDK4 (Homo sapiens, UniProt P11802); assay: CDK4 HTRF kinase assay (Ki measurement); type: biochemical; details: Rb substrate, ATP at 3x Km, Ki=IC50/(1+S/Km)
T1 construct: GST (N); made in house; host or cells: High Five insect cells (baculovirus)
Description: (§1) Using recombinant human cyclin B-CDK1, human cyclin E-CDK2 or human cyclin D1-CDK4 complexes. GST-cyclinE (GST-cycE), CDK2, GST-cyclinB (GST-cycB), CDK1, GST-CDK4 and cyclin D1 (cycD1) cDNA clones in baculovirus vectors were provided by Dr. W. Harper at the Baylor College of Medicine, Houston, Tex. Proteins were co-expressed in High Five™ insect cells and the complex was purified on glutathione Sepharose resin (Pharmacia, Piscataway, N.J.) as previously described (Harper, J. W. et al. Cell 1993, 75, 805-816). A 6×-Histidine tagged truncated form of retinoblastoma (Rb) protein (amino acid 386-928) was used as the substrate for the cycD1-CDK4, cycB-CDK1 and the cycE-CDK2 assays (the expression plasmid was provided by Dr. Veronica Sullivan, Department of Molecular Virology, Roche Research Centre, Welwyn Garden City, United Kingdom). The Rb protein is a natural substrate for phosphorylation by CDK4, CDK2 and CDK1 (see Herwig and Strauss Eur. J. Biochem. Vol. 246 (1997) pp.581-601 and the references cited therein).
(§2) The expression of the 62Kd protein was under the control of an IPTG inducible promoter in an M15 E. coli strain. […] Purified Rb fusion protein stocks were quantitated for protein concentration, aliquoted, and stored at −70° C.
(§3) Using the protein constructs described above, CDK1, CDK2, and CDK4 HTRF assays were set up. These were done in 96-well format and read in 384-well plate format. […]
(§4) In the CDK4 assay, test compounds were diluted to 3× their final concentrations in 25 mM Hepes, pH 7.0, 6.25 mM MgCl2, 1.5 mM DTT, 135 μM ATP. […] The plates were read using either ViewLux or Victor V readers (PerkinElmer Life Sciences) using an excitation wavelength of 340 nm and dual emission wavelengths of 615 nm and 665 nm. […] For ATP competitive inhibitors, the Ki values were calculated according to the following equation: Ki=IC50/(1+S/Km) where S refers to the substrate concentration (ATP) and Km refers to the Michaelis-Menten constant for the ATP.

[2] = target: T2, human cyclin B-CDK1 (Homo sapiens, UniProt P06493); assay: CDK1 HTRF kinase assay (Ki measurement); type: biochemical; details: Rb substrate, ATP at 3x Km, Ki=IC50/(1+S/Km)
T2 construct: made in house; host or cells: High Five insect cells (baculovirus)
Description: Using recombinant human cyclin B-CDK1, human cyclin E-CDK2 or human cyclin D1-CDK4 complexes. GST-cyclinE (GST-cycE), CDK2, GST-cyclinB (GST-cycB), CDK1, GST-CDK4 and cyclin D1 (cycD1) cDNA clones in baculovirus vectors were provided by Dr. W. Harper at the Baylor College of Medicine, Houston, Tex. Proteins were co-expressed in High Five™ insect cells and the complex was purified on glutathione Sepharose resin (Pharmacia, Piscataway, N.J.) as previously described (Harper, J. W. et al. Cell 1993, 75, 805-816). […]
as §2, §3
In the CDK4 assay, test compounds were diluted to 3× their final concentrations in 25 mM Hepes, pH 7.0, 6.25 mM MgCl2, 1.5 mM DTT, 135 μM ATP. […] The plates were read using either ViewLux or Victor V readers (PerkinElmer Life Sciences) using an excitation wavelength of 340 nm and dual emission wavelengths of 615 nm and 665 nm. […]

[3] = target: T3, human cyclin E-CDK2 (Homo sapiens, UniProt P24941); assay: CDK2 HTRF kinase assay (Ki measurement); type: biochemical; details: Rb substrate, ATP at 3x Km, Ki=IC50/(1+S/Km)
T3 construct: made in house; host or cells: High Five insect cells (baculovirus)
Description: as §1, §2, §3
as §4, with “the ATP. […]” for “the ATP.”

[4] = test system: HCT116 cell line; assay: Tetrazolium dye proliferation assay (MTT assay); type: cell-based; details: HCT-116; human colon tumor cell line HCT116, MTT assay
Method: Cell Based Assays (Tetrazolium dye proliferation assay)(“MTT Assay”)
Proliferation was evaluated by the tetrazolium dye assay according to the procedure of Denizot and Lang (Denizot, F. and Lang, R. J Immunol Methods 1986, 89, 271-277). The cell line used was HCT116, a colorectal carcinoma cell line obtained from the American Type Cell Culture Collection (ATCC; Rockville, Md.). The cells were grown in McCoy's 5A medium supplemented with 10% FCS and L-glutamine.
Cells were plated at the appropriate seeding density to give logarithmic growth over the course of the assay in a 96-well tissue culture plate. Plates were incubated overnight at 37° C. in a humidified incubator with 5% CO2. The next day, test compounds were serially diluted to four times the final concentration in the appropriate medium containing 1.2% DMSO. One-fourth final volume of each dilution was added in duplicate to the plates containing cells. The same volume of 1.2% DMSO in medium was added to a row of “control wells” such that the final concentration of DMSO in each well was 0.3%. Wells to which no cells were added served as the “blank.” Wells to which no inhibitor was added served as “no inhibitor control.” The plates were returned to the incubator, and at set time points (determined by their growth curves) plates were analyzed as described below.
3-(4,5-dimethylthiazole-2-yl)-2,5-diphenyl-2H-tetrazolium bromide (thiazolyl blue; MTT; Sigma) was added to each well to yield a final concentration of 1 mg/ml. Plates were returned to the incubator for 2.5-3 hours at 37° C. […] Absorbance readings were taken in a microtiter plate reader (Dynatech and Molecular Devices plate readers were used interchangeably) at a wavelength of 570 nm with a 650 nm reference. Percent inhibition (% INH) is calculated by subtracting the absorbance of the blank well from all wells, then subtracting the ratio of the average absorbance of each test duplicate (SAVE) by the average of the controls (CAVE) from 1.00. […]

T1 sequence (P11802 whole entry): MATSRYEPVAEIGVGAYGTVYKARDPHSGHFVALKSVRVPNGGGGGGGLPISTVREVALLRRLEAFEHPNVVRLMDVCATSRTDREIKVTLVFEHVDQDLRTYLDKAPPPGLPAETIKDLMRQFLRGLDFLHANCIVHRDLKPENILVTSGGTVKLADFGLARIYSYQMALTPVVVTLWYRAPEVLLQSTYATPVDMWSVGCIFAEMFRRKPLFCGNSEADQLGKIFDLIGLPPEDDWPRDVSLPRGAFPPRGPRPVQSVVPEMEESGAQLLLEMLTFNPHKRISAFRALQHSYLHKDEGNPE
T1 sequence (P24385 whole entry partner): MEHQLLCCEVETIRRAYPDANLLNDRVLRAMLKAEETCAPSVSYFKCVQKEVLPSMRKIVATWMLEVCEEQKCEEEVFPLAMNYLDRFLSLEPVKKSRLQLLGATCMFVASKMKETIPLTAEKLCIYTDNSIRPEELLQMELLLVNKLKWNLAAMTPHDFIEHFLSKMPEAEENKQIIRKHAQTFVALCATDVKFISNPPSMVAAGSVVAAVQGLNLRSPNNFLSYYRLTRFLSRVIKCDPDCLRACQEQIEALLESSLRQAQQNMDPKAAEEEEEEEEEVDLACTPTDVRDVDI
T2 sequence (P06493 whole entry): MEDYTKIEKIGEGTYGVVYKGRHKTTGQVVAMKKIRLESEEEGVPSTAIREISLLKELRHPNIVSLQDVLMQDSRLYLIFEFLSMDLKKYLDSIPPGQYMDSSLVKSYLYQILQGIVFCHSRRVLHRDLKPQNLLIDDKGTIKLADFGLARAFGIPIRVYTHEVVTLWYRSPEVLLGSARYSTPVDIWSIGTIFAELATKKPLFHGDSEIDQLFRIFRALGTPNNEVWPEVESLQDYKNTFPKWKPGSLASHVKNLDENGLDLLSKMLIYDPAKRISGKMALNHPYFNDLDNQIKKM
T2 sequence (P14635 whole entry partner): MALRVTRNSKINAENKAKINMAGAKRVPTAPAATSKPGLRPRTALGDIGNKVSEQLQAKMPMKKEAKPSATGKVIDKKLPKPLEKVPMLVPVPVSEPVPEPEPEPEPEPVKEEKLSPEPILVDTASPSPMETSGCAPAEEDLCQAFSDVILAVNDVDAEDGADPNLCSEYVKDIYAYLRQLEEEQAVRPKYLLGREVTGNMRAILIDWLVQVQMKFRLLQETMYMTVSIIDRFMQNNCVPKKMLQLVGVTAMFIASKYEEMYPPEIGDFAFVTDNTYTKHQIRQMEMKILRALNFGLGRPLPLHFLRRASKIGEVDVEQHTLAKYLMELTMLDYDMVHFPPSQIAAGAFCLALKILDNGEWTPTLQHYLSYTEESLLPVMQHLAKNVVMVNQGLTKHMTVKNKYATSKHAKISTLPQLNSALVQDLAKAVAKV

Structure (SMILES) | Ki [1] | Ki [2] | Ki ([3]; read-out: Ki for cdk2) | IC50 [4] | Ki ([3]; read-out: Ki for cdk2 (unit inferred))
COc1cc(Cl)c(F)cc1C(=O)c1ccc(NC2CCN(S(C)(=O)=O)CC2)nc1N [Example 49, [2-Amino-6-(1-methanesulfonyl-piperidin-4-ylamino)-pyridin-3-yl]-(4-chloro-5-fluoro-2-methoxy-phenyl)-methanone] | 8 nM | 154 nM | 39 nM | 3000 nM | –
COc1ccc(F)c(F)c1C(=O)c1ccc(NC2CCN(S(C)(=O)=O)CC2)nc1N [Example 40, [2-Amino-6-(1-methanesulfonyl-piperidin-4-ylamino)-pyridin-3-yl]-(2,3-difluoro-6-methoxy-phenyl)-methanone] | 17 nM | 60 nM | – | 2600 nM | 54 nM
COc1ccc(F)cc1C(=O)c1ccc(NC2CCN(S(C)(=O)=O)CC2)nc1N [Example 23, [2-Amino-6-(1-methanesulfonyl-piperidin-4-ylamino)-pyridin-3-yl]-(5-fluoro-2-methoxy-phenyl)-methanone] | 40 nM | – | 98 nM | 9000 nM | –
